The record followed here is patent publication US12577216B2, “Triazine benzoate compound and application thereof” (SHENYANG SINOCHEM AGROCHEMICALS R&D CO., LTD., priority 2020, dated 2026).

What all share (type): in vivo
One test deals with piemarker. Put plainly: Determination of herbicidal activity, post-emergence stem and leaf spray, piemarker. To be noted: for control effects on piemarker / pest or weed control at 150 g/ha: 150 g a.i./hm^2, after emergence, visual 0-100%; for Herbicidal activity for Piemarker, control effect %: Table 4 parallel comparison; for pest or weed control at 150 g/ha: post-emergence, read-out: control effects on piemarker. The procedure: (§1) Seeds of broadleaf weeds (zinnia and piemarker) or grassy weeds (green bristlegrass and barnyard grass) were respectively sown in a paper cup having a diameter of 7 cm and containing nutrient soil; after sowing, the seeds were covered with 1 cm of soil; the soil was pressed and watered, and then the seeds were cultivated in a greenhouse according to a conventional method; and stems and leaves were sprayed after 2-3 leaf stage of the weeds.
(§2) After the original medicinal acetone was dissolved, the test requires to use 1‰ of Tween 80 to stand in running water to prepare the solution to be tested with a required concentration. According to the design dose of the test, spray treatment was carried out on a track-type crop sprayer (designed and produced by British Engineer Research Ltd.) (spray pressure is 1.95 kg/cm^2, spray volume is 500 L/hm^2 and track speed is 1.48 km/h). The test was repeated for three times. The test material was treated and then placed in an operation hall. The medicinal liquid was naturally dried in the shade, and then was placed in a greenhouse and managed according to the conventional method. The response of the weeds to the drug was observed and recorded. After treatment, the control effects of the test drug on the weeds were visually inspected regularly, expressed by 0-100%. “0” represents no control effect and “100%” represents complete killing.

In the next test the test system is zinnia. As to the kind of experiment: Determination of herbicidal activity, post-emergence stem and leaf spray, zinnia. To be noted: for control effects on zinnia: 150 g a.i./hm^2, after emergence, visual 0-100%; for Herbicidal activity for Zinnia, control effect %: Table 3 parallel comparison. The procedure:
as §1, §2

Another test relates to green bristlegrass. Put plainly: Determination of herbicidal activity, post-emergence stem and leaf spray, green bristlegrass. To be noted: Table 5 parallel comparison. Here is the method:
as §1, §2

Setting [1] is: 2.34 g a.i./hm^2, after emergence.
[2] abbreviates: 9.375 g a.i./hm^2, after emergence.
[3] abbreviates: 37.5 g a.i./hm^2, after emergence.

As for `CC(OC(=O)c1cc(-n2c(=O)n(C)c(=S)n(C)c2=O)ccc1Cl)C(=O)OCC1CC1` (stereo not drawn) [Compound 160], the “control effects on piemarker” value in the test on piemarker is 100%.

Regarding `CC(OC(=O)c1cc(-n2c(=O)n(C)c(=S)n(C)c2=O)c(F)cc1Cl)C(=O)OCC1CO1` (stereo not drawn) [Compound 295], in the test on piemarker, the “control effects on piemarker” value stood at 100%. The “control effects on zinnia” value with zinnia was 100%. The entries for the “Herbicidal activity for Zinnia, control effect %” value in the test on zinnia (setting [1]) and in the test on zinnia (setting [2]) were 90% and 100%, respectively.

As for `CC(OC(=O)c1cc(-n2c(=O)n(C)c(=S)n(C)c2=O)c(F)cc1Cl)C(=O)OCC=C(Cl)Cl` (stereo not drawn) [Compound 283], the “Herbicidal activity for Green Bristlegrass, control effect %” value in the test with green bristlegrass (setting [2]) is 50%; with green bristlegrass (setting [3]), 85%. In addition, in the test on piemarker, the “control effects on piemarker” value is given as 100%. For the same compound, the “control effects on zinnia” value with zinnia is recorded as 100%. The “Herbicidal activity for Zinnia, control effect %” value with zinnia (setting [1]) and with zinnia (setting [2]) was 100% each time.

Consider `CCOC(=O)C(CC)OC(=O)c1cc(-n2c(=O)n(C)c(=S)n(C)c2=O)c(F)cc1Cl` (stereo not drawn) [Compound 299], for which the entries for the “Herbicidal activity for Piemarker, control effect %” value in the test with piemarker (setting [1]) and in the test with piemarker (setting [2]) were 85% and 100%, respectively. Besides, the “control effects on zinnia” value in the test on zinnia is listed as 100%.

For the compound `CC(OC(=O)c1cc(-n2c(=O)n(C)c(=S)n(C)c2=O)c(F)cc1Cl)C(=O)OC/C=C/c1ccccc1` (stereo not drawn) [Compound 290], in the test on piemarker, the “control effects on piemarker” value amounted to 100%. Further, the “control effects on zinnia” value with zinnia was 100%.

Regarding `Cn1c(=S)n(C)c(=O)n(-c2cc(C(=O)OCC(=O)OCC3COC(C)(C)O3)c(Cl)cc2F)c1=O` (stereo not drawn) [Compound 247], the “Herbicidal activity for Green Bristlegrass, control effect %” value came to 60% with green bristlegrass (setting [2]) and 90% with green bristlegrass (setting [3]). For the same compound, the “control effects on piemarker” value with piemarker was 100%. The “control effects on zinnia” value with zinnia is on record as 100%. The “Herbicidal activity for Zinnia, control effect %” value in the test with zinnia (setting [1]) and with zinnia (setting [2]) was 100% each time.

On to `CC(OC(=O)c1cc(-n2c(=O)n(C)c(=S)n(C)c2=O)c(F)cc1Cl)C(=O)OCCCCl` (racemic) [Compound 268], for which, in the test on piemarker, the “control effects on piemarker” value was 100%. Besides, the “control effects on zinnia” value in the test on zinnia was found to be 100%. The “Herbicidal activity for Zinnia, control effect %” value stood at 85% with zinnia (setting [1]) and 100% in the test with zinnia (setting [2]).

Consider `C[C@H](OC(=O)c1cc(-n2c(=O)n(C)c(=S)n(C)c2=O)c(F)cc1Cl)C(=O)OCCCl` [Compound 267], for which the entries for the “Herbicidal activity for Piemarker, control effect %” value in the test on piemarker (setting [1]) and in the test with piemarker (setting [2]) were 90% and 100%, respectively. Also, in the test on piemarker, the pest or weed control at 150 g/ha came out at 100%. Also, the “control effects on zinnia” value in the test on zinnia is reported as 100%. For the same compound, the “Herbicidal activity for Zinnia, control effect %” value in the test on zinnia (setting [1]) amounted to 85%; in the test on zinnia (setting [2]), 100%.

In the case of `C[C@@H](OC(=O)c1cc(-n2c(=O)n(C)c(=S)n(C)c2=O)c(F)cc1Cl)C(=O)OCCCCl` [Compound 269], the “control effects on piemarker” value in the test with piemarker is on record as 100%. Further, the “control effects on zinnia” value with zinnia was determined as 100%. Moreover, the “Herbicidal activity for Zinnia, control effect %” value came to 80% with zinnia (setting [1]) and 95% in the test with zinnia (setting [2]).

Regarding `C[C@H](OC(=O)c1cc(-n2c(=O)n(C)c(=S)n(C)c2=O)c(F)cc1Cl)C(=O)OCCCCl` [Compound 270], the “control effects on piemarker” value with piemarker turned out to be 100%. For the same compound, the “Herbicidal activity for Piemarker, control effect %” value in the test on piemarker (setting [1]) was found to be 85%; in the test with piemarker (setting [2]), 100%. Moreover, the “control effects on zinnia” value in the test with zinnia was determined as 100%. For the same compound, the figures for the “Herbicidal activity for Zinnia, control effect %” value with zinnia (setting [1]) and in the test with zinnia (setting [2]) were 90% and 100%, respectively.

For the compound `CC(OC(=O)c1cc(-n2c(=O)n(C)c(=S)n(C)c2=O)ccc1Cl)C(=O)OCCCl` (racemic) [Compound 138], the “control effects on piemarker” value in the test on piemarker amounted to 100%.

For `CC(OC(=O)c1cc(-n2c(=O)n(C)c(=S)n(C)c2=O)c(F)cc1Cl)C(=O)OCCCCCl` (stereo not drawn) [Compound 273], the “control effects on piemarker” value with piemarker is listed as 100%. Further, the entries for the “Herbicidal activity for Piemarker, control effect %” value with piemarker (setting [1]) and in the test on piemarker (setting [2]) were 90% and 100%, respectively. The “control effects on zinnia” value with zinnia was determined as 100%.

Turning to `CC(OC(=O)c1cc(-n2c(=O)n(C)c(=S)n(C)c2=O)c(F)cc1Cl)C(=O)OCC1COC(C)(C)O1` (stereo not drawn) [Compound 297], in the test with piemarker, the “control effects on piemarker” value was determined as 100%. Besides, the figures for the “Herbicidal activity for Piemarker, control effect %” value with piemarker (setting [1]) and in the test on piemarker (setting [2]) were 85% and 100%, respectively. In the test on zinnia, the “control effects on zinnia” value was determined as 100%. The “Herbicidal activity for Zinnia, control effect %” value came out at 95% with zinnia (setting [1]) and 100% in the test with zinnia (setting [2]).

Consider `CCC(OC(=O)c1cc(-n2c(=O)n(C)c(=S)n(C)c2=O)c(F)cc1Cl)C(=O)OCCCCl` (stereo not drawn) [Compound 302], for which the “control effects on piemarker” value with piemarker amounted to 100%. Also, the “control effects on zinnia” value in the test on zinnia worked out at 100%. Besides, the results for the “Herbicidal activity for Zinnia, control effect %” value with zinnia (setting [1]) and with zinnia (setting [2]) were 90% and 100%, respectively.

Turning to `CC(OC(=O)c1cc(-n2c(=O)n(C)c(=S)n(C)c2=O)c(F)cc1Cl)C(=O)OCCF` (stereo not drawn) [Compound 264], the “control effects on piemarker” value with piemarker is listed as 100%. Also, in the test on zinnia, the “control effects on zinnia” value is 100%. Besides, the “Herbicidal activity for Zinnia, control effect %” value in the test on zinnia (setting [1]) was found to be 90%; in the test with zinnia (setting [2]) it was 100%.

As for `CC(OC(=O)c1cc(-n2c(=O)n(C)c(=S)n(C)c2=O)c(F)cc1Cl)C(=O)OCC1CCCO1` (stereo not drawn) [Compound 296], in the test on piemarker, the “control effects on piemarker” value is recorded as 100%. Besides, the “control effects on zinnia” value in the test with zinnia is 100%. The “Herbicidal activity for Zinnia, control effect %” value in the test on zinnia (setting [1]) came to 90%; in the test on zinnia (setting [2]), 100%.

`CCC(OC(=O)c1cc(-n2c(=O)n(C)c(=S)n(C)c2=O)c(F)cc1Cl)C(=O)OCCCl` (stereo not drawn) [Compound 301]: the “control effects on piemarker” value in the test on piemarker amounted to 100%. Further, the “control effects on zinnia” value in the test on zinnia turned out to be 100%.

On to `C[C@@H](OC(=O)c1cc(-n2c(=O)n(C)c(=S)n(C)c2=O)c(F)cc1Cl)C(=O)OCCCl` [Compound 266], for which the pest or weed control at 150 g/ha in the test with piemarker stood at 100%. The “control effects on zinnia” value with zinnia was determined as 100%. Besides, the “Herbicidal activity for Zinnia, control effect %” value amounted to 85% with zinnia (setting [1]) and 100% with zinnia (setting [2]).

Turning to `CCOC(=O)C(OC(=O)c1cc(-n2c(=O)n(C)c(=S)n(C)c2=O)c(F)cc1Cl)C(C)C` (stereo not drawn) [Compound 305], the “control effects on piemarker” value in the test on piemarker was 100%. For the same compound, the “control effects on zinnia” value in the test with zinnia amounted to 100%.

On to `CC(OC(=O)c1cc(-n2c(=O)n(C)c(=S)n(C)c2=O)c(F)cc1Cl)C(=O)OCCCl` (racemic) [Compound 265], for which the “control effects on piemarker” value in the test with piemarker came to 100%. Also, the “Herbicidal activity for Piemarker, control effect %” value in the test with piemarker (setting [1]) worked out at 90%; in the test on piemarker (setting [2]), 100%. Besides, the “control effects on zinnia” value in the test with zinnia turned out to be 100%.

On to `CCC(OC(=O)c1cc(-n2c(=O)n(C)c(=S)n(C)c2=O)c(F)cc1Cl)C(=O)OCCF` (stereo not drawn) [Compound 300, 2-chloro-4-fluoro-5-(3,5-dimethyl-2,6-dioxo-4-thio-1,3,5-triazine-1-yl)benzoic acid (1-(2-fluoroethoxycarbonyl))propyl ester], for which, in the test on piemarker, the pest or weed control at 150 g/ha stood at 100%. Also, the “control effects on zinnia” value in the test on zinnia came to 100%.

Take `CCOC(=O)C(C)(C)OC(=O)c1cc(-n2c(=O)n(C)c(=S)n(C)c2=O)c(F)cc1Cl` [Compound 306, 2-chloro-4-fluoro-5-(3,5-dimethyl-2,6-dioxo-4-thio-1,3,5-triazine-1-yl)benzoic acid (1-methyl-1-ethoxycarbonyl)ethyl ester]: the pest or weed control at 150 g/ha in the test on piemarker came to 100%.

Turning to `CCC(OC(=O)c1cc(-n2c(=O)n(C)c(=S)n(C)c2=O)c(F)cc1Cl)C(=O)OCC1CC1` (stereo not drawn) [Compound 304], the “control effects on piemarker” value in the test on piemarker is given as 100%. Besides, the “control effects on zinnia” value in the test on zinnia amounted to 100%. Besides, the “Herbicidal activity for Zinnia, control effect %” value with zinnia (setting [1]) is listed as 80%; with zinnia (setting [2]), 100%.

Take `CC(OC(=O)c1cc(-n2c(=O)n(C)c(=S)n(C)c2=O)c(F)cc1Cl)C(=O)OCc1ccccc1` (stereo not drawn) [Compound 289]: the “control effects on piemarker” value in the test with piemarker came out at 100%. Moreover, the “control effects on zinnia” value in the test with zinnia amounted to 100%.

Take `CCC(OC(=O)c1cc(-n2c(=O)n(C)c(=S)n(C)c2=O)c(F)cc1Cl)C(=O)OCCCCCl` (stereo not drawn) [Compound 303]: the “control effects on piemarker” value in the test on piemarker came to 100%. For the same compound, the “control effects on zinnia” value in the test with zinnia is 100%. Besides, the “Herbicidal activity for Zinnia, control effect %” value was determined as 85% in the test with zinnia (setting [1]) and 100% in the test with zinnia (setting [2]).

Turning to `CC(OC(=O)c1cc(-n2c(=O)n(C)c(=S)n(C)c2=O)c(F)cc1Cl)C(=O)OCC1CCCC1` (stereo not drawn) [Compound 293], in the test on piemarker, the “control effects on piemarker” value is given as 100%. Moreover, the “Herbicidal activity for Piemarker, control effect %” value with piemarker (setting [1]) amounted to 85%; in the test with piemarker (setting [2]) it was 100%. Moreover, in the test on zinnia, the “control effects on zinnia” value was determined as 100%. Also, the “Herbicidal activity for Zinnia, control effect %” value with zinnia (setting [1]) came out at 90%; with zinnia (setting [2]), 100%.
